These results are taken from paper PMC10257517 (European Journal of Medicinal Chemistry, 2023).

For orientation: IC50 means the concentration needed to halve the response being measured. Low readings indicate greater potency in that assay, high ones weaker potency in that assay. The term CC50 denotes the concentration giving 50% cytotoxicity. A higher CC50 goes with lower toxicity to the cells. The EC50 is the concentration that produces a half-maximal response.

Series [1] addresses M^pro-SARS-CoV-2 (3CL Protease) (Severe acute respiratory syndrome coronavirus 2, UniProt P0DTD1). The series can be described thus: M^pro-SARS-CoV-2 inhibition, 3CL Protease. The class given is biochemical.
Series [2] has as its system SARS-CoV-2 (hCoV-19/Egypt/NRC-03/2020). The class given is cell-based. As to conditions: for Selectivity index (SI): SI=CC50/IC50.
The nature of series [3]: MTT cytotoxicity assay. The class given is cell-based. As to conditions: African green monkey, VERO-E6 cells.
For series [4], the system named is SARS-CoV-2. To be noted: read-out: EC50 (Vero-E6 cell); against SARS-CoV-2, Vero-E6 cell; cited from earlier work.
The subject of series [5] is VERO-E6 cells. The series can be described thus: MTT cytotoxicity assay. The class given is cell-based. To be noted: MTT, 24 h. A general note: Formazan colour is commonly taken as a measure of viable cells.

`CCOP(=O)(OCC)N1C/C(=C\c2ccccc2)C(=O)C2(C1)C(c1ccccc1)CN(C)C21C(=O)Nc2ccc(Cl)cc21` (stereo not shown) [Compound 6b, Diethyl (E)-(5″-benzylidene-5-chloro-1′-methyl-2,4″-dioxo-4′-phenyldispiro[indoline-3,2′-pyrrolidine-3′,3″-piperidin]-1″-yl)phosphonate]: in series [1], the IC50 came out at 9.6 ± 0.66 µM. In addition, the “Selectivity index (SI)” value in series [2] amounted to 2.12. In series [3], this compound came in with a cytotoxic concentration (CC50) at 24 h of 22 µM.
The like results for `CCOP(=O)(OCC)N1C/C(=C\c2ccc(F)cc2)C(=O)C2(C1)C(c1ccc(F)cc1)CN(C)C21C(=O)Nc2ccc(Cl)cc21` (stereo not shown) [Compound 6d, Diethyl (E)-[5-chloro-5''-(4-fluorobenzylidene)-4'-(4-fluorophenyl)-1′-methyl-2,4″-dioxodispiro[indoline-3,2′-pyrrolidine-3′,3″-piperidin]-1″-yl]phosphonate] were, in that order, 42.8 ± 2.53 µM, 1.39 and 18.8 µM.
The compound `CCOP(=O)(OCC)N1C/C(=C\c2ccc(Br)cc2)C(=O)C2(C1)C(c1ccc(Br)cc1)CN(C)C21C(=O)Nc2ccccc21` (stereo not shown) [Compound 6g, Diethyl (E)-[5''-(4-bromobenzylidene)-4'-(4-bromophenyl)-1′-methyl-2,4″-dioxodispiro[indoline-3,2′-pyrrolidine-3′,3″-piperidin]-1″-yl]phosphonate] registered an IC50 in series [1] of 15.6 ± 1.02 µM. Moreover, in series [2], the “Selectivity index (SI)” value amounted to 2.29. In series [3], this compound registered a CC50 at 24 h of 20.3 µM.
With `COc1cccc2[nH]c(C(=O)N[C@@H](CC(C)C)C(=O)N[C@@H](C[C@@H]3CCNC3=O)C(=O)CO)cc12` [PF-00835231], the EC50 in series [4] was not above 0.23 µM.
With “Diethyl (E)-(5″-benzylidene-1′-methyl-2,4″-dioxo-4′-phenyldispiro[indoline-3,2′-pyrrolidine-3′,3″-piperidin]-1″-yl)phosphonate [Compound 6a]”, it took 88.6 µM to reach half-maximal inhibition in series [2] (IC50). For the same compound, in series [5], the CC50 came out at 73.1 µM.
The like results for “Diethyl (E)-[1′-methyl-2,4″-dioxo-4'-(thiophen-2-yl)-5''-(thiophen-2-ylmethylene)dispiro[indoline-3,2′-pyrrolidine-3′,3″-piperidin]-1″-yl]phosphonate [Compound 6k]” were, in that order, 106 µM and 49.9 µM.
In series [2], “Diethyl (E)-[1′-methyl-5''-(4-methylbenzylidene)-2,4″-dioxo-4'-(p-tolyl)dispiro[indoline-3,2′-pyrrolidine-3′,3″-piperidin]-1″-yl]phosphonate [Compound 6i]” came in with an IC50 of 35.2 µM. In addition, the CC50 in series [5] amounted to 87 µM.
The like results for “Diethyl (E)-[5''-(4-chlorobenzylidene)-4'-(4-chlorophenyl)-1′-methyl-2,4″-dioxodispiro[indoline-3,2′-pyrrolidine-3′,3″-piperidin]-1″-yl]phosphonate [Compound 6e]” were, in that order, 340 µM and 9.83 µM.
For “Diethyl (E)-[5''-(4-fluorobenzylidene)-4'-(4-fluorophenyl)-1′-methyl-2,4″-dioxodispiro[indoline-3,2′-pyrrolidine-3′,3″-piperidin]-1″-yl]phosphonate [Compound 6c]”, the IC50 in series [2] stood at 85.8 µM. This compound also yielded a CC50 in series [5] of 126 µM.
The like results for “Diethyl (E)-[5''-(4-methoxybenzylidene)-4'-(4-methoxyphenyl)-1′-methyl-2,4″-dioxodispiro[indoline-3,2′-pyrrolidine-3′,3″-piperidin]-1″-yl]phosphonate [Compound 6h]” were, in that order, 46.7 µM and 38.3 µM.
The like results for “Diethyl (E)-[5-chloro-1′-methyl-2,4″-dioxo-4'-(thiophen-2-yl)-5''-(thiophen-2-ylmethylene)dispiro[indoline-3,2′-pyrrolidine-3′,3″-piperidin]-1″-yl]phosphonate [Compound 6l]” were, in that order, 578 µM and 23.7 µM.
With “Diethyl (E)-[5-chloro-1′-methyl-5''-(4-methylbenzylidene)-2,4″-dioxo-4'-(p-tolyl)dispiro[indoline-3,2′-pyrrolidine-3′,3″-piperidin]-1″-yl]phosphonate [Compound 6j]”, inhibition in series [2] was half-maximal at 21.7 µM (IC50). In series [5], this compound displayed a CC50 of 40.1 µM.
The like results for “Diethyl (E)-[5-chloro-5''-(4-chlorobenzylidene)-4'-(4-chlorophenyl)-1′-methyl-2,4″-dioxodispiro[indoline-3,2′-pyrrolidine-3′,3″-piperidin]-1″-yl]phosphonate [Compound 6f]” were, in that order, 7.26 µM and 10 µM.
